Experimental data as given in US7999119B2, “Compounds having CRTH2 antagonist activity” (Oxagen Limited, priority 2006, dated 2011).
Where “and” joins values, the source holds several entries; their conditions need not be identical. Equal entries are not always repeated. Where two headings read alike, the source gives them in different places.

Tests used:
[1] = Pharmacokinetics following oral administration in the rat; assay type: in vivo
Procedure: Investigation of Pharmacokinetics of Compounds of General Formula (I) Following Oral Administration in the Rat
Rats were weighed on the day of dosing.
The test material was prepared as a 0.3 mg/mL suspension in 1% carboxy-methyl-cellulose (CMC).
Three groups of 3 rats were dosed as follows:
Doses were administered as a single oral dose using a gavage tube at a constant dose volume of 10 mL/kg.
At each sampling time point blood samples (approximately 0.3 mL) was taken from a catheter inserted into a lateral tail vein prior to the start of the experiment. The final blood sample (approximately 2 mL) from each animal was taken by cardiac puncture under isoflurane anaesthesia following which the animal was killed by exsanguination. Blood samples were taken into individual heparinised containers. Blood samples were collected at the following times post-dose:
Following collection, the blood samples were centrifuged (approximately 10,000×g, 2 min at 4° C.) and the plasma stored as one aliquot at approximately −20° C. pending analysis of drug concentrations by LC-MS/MS.
The plasma samples were analysed for test material concentrations at BioDynamics using an LC-MS/MS method developed at BioDynamics.

[2] = test system: DK-PGD2-induced blood eosinophilia; assay: Inhibition of DK-PGD2-induced blood eosinophilia in rats; assay type: in vivo, rat; conditions: female rats, oral dosing 30 min before 10 μg DK-PGD2 intracardiac; ED50 from dose-response curve; the values are: ED50
Procedure: Evaluation of Compounds of General Formula (I) as Inhibitors of 13,14-dihydro-15-keto prostaglandin D2 (DK-PGD2)-Induced Blood Eosinophilia in Rats
The test compound was dissolved in DMSO and diluted with water to give a final dosing volume of 2 ml/kg.
Female rats (175-250 g; UH colony) were dosed orally with test compound (or vehicle).
30 min after dosing all animals were anaesthetised with isoflurane.
Following induction of anaesthesia, animals receive an intracardiac injection of 10 μg DK-PGD2 in 0.3 ml heparinised (10 U/ml) saline. Control animals received an injection of 0.3 ml heparinised saline.
60 min after the intracardiac injection, animals were injected with an overdose of pentobarbitone sodium and a blood sample was taken (into heparin) by cardiac puncture while the rat was anaesthetised but not dead.
An aliquot of blood (100 μl) was added to Turk's solution and the total leukocyte count determined with a haemocytometer.
A further aliquot of blood (500 μl) was mixed with an equal volume of 4% Dextran (mw 500,000) and the erythrocytes allowed to settle. A cytospin preparation was made from the resulting leukocyte rich fraction.
Cytospin preparations were fixed with methanol (5 min) and stained with May-Grunwald (5 min) and Giemsa (15 min) stains. Finally cytospins were washed in phosphate buffer (pH6.8) and air dried.
Differential leukocyte counts were obtained from the cytospin preparations.
Blood eosinophil numbers were determined from the total leukocyte count and the percentage eosinophils (differential count).
Because it was impractical to generate sufficient data in any given experiment, data were obtained over a number of replicate experiments. Data from these replicate experiments were pooled, to provide at least 5 animals in each group and a dose-response curve fitted following a significance test (Mann Whitney) to determine whether or not DK-PGD2 caused a significant increase in blood eosinophils (GraphPad, Prism). A difference between groups was taken to be significant when P<0.05. ED50 values were calculated from the dose-response curve.

[3] = test system: PGD2 induced eosinophil shape change; assay: Human whole blood eosinophil shape change assay; assay type: cell-based
Procedure: Human Whole Blood Eosinophil Shape Change Assay
Compounds 1 to 3 were assayed for their effect on PGD2 induced eosinophil shape change and were compared with Comparator Compounds A to G.
Shape Change Assay in Whole Blood
Compounds (1 μl, 200× final concentration) were added directly to 200 μl whole blood, mixed well and incubated for 15 min, 37° C., 5% CO2. After this time, cell shape was fixed by addition of 300 μl Cytofix™ buffer (BD Biosciences), 15 min on ice. 10 ml RBC lysis buffer was added to the fixed cells, incubated 5 min, at room temperature and centrifuged, 300×g for 5 min. Supernatant (containing lysed red cells) was removed and the lysis step was repeated. Leukocytes were resuspended in 250 μl RPMI/10% FCS and shape change analysed by FACS. Eosinophils were gated out based on their autofluorescence and 2000 eosinophil events were counted per sample. Data were analysed in triplicate.

[4] = rat, 3 mg/kg p.o, individual male animals, 3 mg/kg

Structure (SMILES): Cc1c(Cc2ccccc2S(=O)(=O)c2ccccc2)c2cc(F)ccc2n1CC(=O)O [Compound 1, 2-(5-fluoro-2-methyl-3-(2-(phenylsulfonyl)benzyl)-1H-indol-1-yl)acetic acid]
- concentration at 0.25 h ([1]; male, rat, plasma, po, 3 mg/kg, rat, 3 mg/kg oral, 0.25 h, individual male animals, read-out: Concentration in Blood): 1160 ng/mL
- concentration at 0.25 h ([1]; male, rat, plasma, po, 3 mg/kg, rat, 3 mg/kg oral, 0.25 h, mean, read-out: Concentration in Blood, Mean): 1450 ng/mL
- concentration at 0.5 h ([1]; male, rat, plasma, po, 3 mg/kg, rat, 3 mg/kg oral, 0.5 h, individual male animals, read-out: Concentration in Blood): 2680 ng/mL
- concentration at 0.5 h ([1]; male, rat, plasma, po, 3 mg/kg, rat, 3 mg/kg oral, 0.5 h, mean, read-out: Concentration in Blood, Mean): 2910 ng/mL
- concentration at 1 h ([1]; male, rat, plasma, po, 3 mg/kg, rat, 3 mg/kg oral, 1 h, individual male animals, read-out: Concentration in Blood): 3840 ng/mL
- concentration at 1 h ([1]; male, rat, plasma, po, 3 mg/kg, rat, 3 mg/kg oral, 1 h, mean, read-out: Concentration in Blood, Mean): 4000 ng/mL
- concentration at 2 h ([1]; male, rat, plasma, po, 3 mg/kg, rat, 3 mg/kg oral, 2 h, individual male animals, read-out: Concentration in Blood): 4330 ng/mL
- concentration at 2 h ([1]; male, rat, plasma, po, 3 mg/kg, rat, 3 mg/kg oral, 2 h, mean, read-out: Concentration in Blood, Mean): 3950 ng/mL
- concentration at 4 h ([1]; male, rat, plasma, po, 3 mg/kg, rat, 3 mg/kg oral, 4 h, individual male animals, read-out: Concentration in Blood): 1890 ng/mL
- concentration at 4 h ([1]; male, rat, plasma, po, 3 mg/kg, rat, 3 mg/kg oral, 4 h, mean, read-out: Concentration in Blood, Mean): 1540 ng/mL
- concentration at 6 h ([1]; male, rat, plasma, po, 3 mg/kg, rat, 3 mg/kg oral, 6 h, mean, read-out: Concentration in Blood, Mean): 1050 ng/mL
- concentration at 8 h ([1]; male, rat, plasma, po, 3 mg/kg, rat, 3 mg/kg oral, 8 h, mean, read-out: Concentration in Blood, Mean): 734 ng/mL
- concentration at 12 h ([1]; male, rat, plasma, po, 3 mg/kg, rat, 3 mg/kg oral, 12 h, individual male animals, read-out: Concentration in Blood): 455 ng/mL
- concentration at 12 h ([1]; male, rat, plasma, po, 3 mg/kg, rat, 3 mg/kg oral, 12 h, mean, read-out: Concentration in Blood, Mean): 375 ng/mL
- concentration at 24 h ([1]; male, rat, plasma, po, 3 mg/kg, rat, 3 mg/kg oral, 24 h, mean, read-out: Concentration in Blood, Mean): 47.4 ng/mL
- AUC(0-inf) ([1]; male, rat, plasma, po, 3 mg/kg, rat, 3 mg/kg p.o, individual male animals, read-out: AUCinf): 23800 ng·h/mL
- Cmax ([1]; male, rat, plasma, po, 3 mg/kg, rat, 3 mg/kg p.o, individual male animals, read-out: Cmax): 4330 ng/mL
- Tmax ([1]; male, rat, plasma, po, 3 mg/kg, rat, 3 mg/kg p.o, individual male animals, read-out: Tmax): 2 h
- half-life ([1]; male, rat, plasma, po, 3 mg/kg, rat, 3 mg/kg p.o, individual male animals, read-out: T½ (converted)): 4.11 h
- AUC(0-inf) ([1]; male, rat, plasma, po, 3 mg/kg, rat, 3 mg/kg p.o, mean, summary without unit (Table 12), read-out: AUCinf (mean)): 19200 ng·h/mL
- Cmax ([1]; male, rat, plasma, po, 3 mg/kg, rat, 3 mg/kg p.o, mean, summary without unit (Table 12), read-out: Cmax (mean)): 4160 ng/mL
- AUC(0-inf) ([1]; male, rat, plasma, po, 3 mg/kg, rat, 3 mg/kg p.o, mean, read-out: AUCinf, Mean): 19300 ng·h/mL
- Cmax ([1]; male, rat, plasma, po, 3 mg/kg, rat, 3 mg/kg p.o, mean, read-out: Cmax, Mean): 4160 ng/mL
- Tmax ([1]; male, rat, plasma, po, 3 mg/kg, rat, 3 mg/kg p.o, mean, read-out: Tmax, Mean): 1.3 h
- half-life ([1]; male, rat, plasma, po, 3 mg/kg, rat, 3 mg/kg p.o, mean, read-out: T½, Mean (converted)): 3.6 h
- Fold over IC50 at 12 h ([1]; mean blood concentration at 12 h (rat, 3 mg/kg p.o.) divided by whole blood IC50 in ng/ml): 170
- Concentration in Blood ([1]; rat, 3 mg/kg oral, 0.25 h, individual male animals, 3 mg/kg): 1496.0 ng/mL and 1678.0 ng/mL
- Concentration in Blood ([1]; rat, 3 mg/kg oral, 0.5 h, individual male animals, 3 mg/kg): 2792.4 ng/mL and 3264.7 ng/mL
- Concentration in Blood ([1]; rat, 3 mg/kg oral, 1 h, individual male animals, 3 mg/kg): 3895.3 ng/mL and 4262.9 ng/mL
- Concentration in Blood ([1]; rat, 3 mg/kg oral, 2 h, individual male animals, 3 mg/kg): 3454.7 ng/mL and 4051.1 ng/mL
- Concentration in Blood ([1]; rat, 3 mg/kg oral, 4 h, individual male animals, 3 mg/kg): 1046.5 ng/mL and 1670.8 ng/mL
- Concentration in Blood ([1]; rat, 3 mg/kg oral, 6 h, individual male animals, 3 mg/kg): 1423.7 ng/mL and 547.5 ng/mL and 1183.1 ng/mL
- Concentration in Blood ([1]; rat, 3 mg/kg oral, 8 h, individual male animals, 3 mg/kg): 1099.9 ng/mL and 404.7 ng/mL and 696.2 ng/mL
- Concentration in Blood ([1]; rat, 3 mg/kg oral, 12 h, individual male animals, 3 mg/kg): 256.6 ng/mL and 412.8 ng/mL
- Concentration in Blood ([1]; rat, 3 mg/kg oral, 24 h, individual male animals, 3 mg/kg): 68.5 ng/mL and 10.2 ng/mL and 63.5 ng/mL
- AUCinf [1, 4]: 14846 ng·h/mL and 21731 ng·h/mL
- Cmax [1, 4]: 3895 ng/mL and 4263 ng/mL
- Tmax [1, 4]: 1 h
- T½ [1, 4]: 3.07 h and 4.59 h
- Potency in inhibition of DK-PGD2-induced blood eosinophilia [2]: 2.5 µg/kg
- IC50 ([3]; Homo sapiens, Eosinophil, 10 nm PGD2-induced eosinophil shape change, human whole blood, read-out: Whole Blood IC50): 5 nM
- IC50 ([3]; Homo sapiens, Eosinophil, Table 12 summary of whole blood eosinophil shape change IC50, read-out: IC50 (μmol)): 5 nM
- IC50 ([3]; whole blood eosinophil shape change IC50 converted to ng/mL): 2.2 ng/mL
